Assay results published in patent US6538037B2, “Methods for preparation and use of 1α,24(S)-dihydroxyvitamin D2” (Bone Care International, Inc., priority 1991, dated 2003).
Where two headings read alike, the source gives them in different places.

Tests used:
[1] = Hypocalcemia and metabolic bone disease in chronic hemodialysis patients; format: in vivo, human; settings: greater than 3.0 μg/day
Protocol: A twelve-month, double-blind, placebo-controlled clinical trial is conducted with thirty men and women with renal disease who are undergoing chronic hemodialysis. All patients enter an 8-week control period during which time they receive a maintenance dose of Vitamin D3 (400 IU/day). After this control period, the patients are randomized into two treatment groups: one group receives a constant dosage of 1α,24(S)-dihydroxyvitamin D2 (u.i.d.; a dosage greater than 3.0 μg/day) and the other group receives a matching placebo. Both treatment groups receive a maintenance dosage of Vitamin D3, maintain a normal intake of dietary calcium, and refrain from using calcium supplements. Efficacy is evaluated by pre- and post-treatment comparisons of the two patient groups with regard to (a) direct measurements of intestinal calcium absorption, (b) total body calcium retention, (c) radial and spinal bone mineral density, or (d) determinations of serum calcium. Safety is evaluated by regular monitoring of serum calcium.

[2] = Preventive treatment of bone mass loss in postmenopausal osteoporotic women; format: in vivo, human; settings: at or above 1.0 μg/day, 24 to 36 months
Protocol: A clinical study is conducted with postmenopausal osteoporotic out-patients having ages between 55 and 75 years. The study involves up to 120 patients randomly divided into three treatment groups and continues for 24 to 36 months. Two of the treatment groups receive constant dosages of 1α,24(S)-dihydroxyvitamin D2 (u.i.d.; two different dose levels at or above 1.0 μg/day) and the other group receives a matching placebo. All patients maintain a normal intake of dietary calcium (500 to 800 mg/day) and refrain from using calcium supplements. Efficacy is evaluated by pre-and post-treatment comparisons of the patient groups with regard to (a) total body calcium retention, and (b) radial and spinal bone mineral density as determined by dual-photon absorptiometry (DPA) or dual-energy x-ray absorptiometry (DEXA). Safety is evaluated by comparisons of urinary hydroxyproline excretion, serum and urine calcium levels, creatinine clearance, blood urea nitrogen, and other routine determinations.

[3] = molecular target: T1, vitamin D serum binding protein (DBP) (Rattus norvegicus, UniProt P04276); experiment: Affinity for vitamin D serum binding protein using vitamin D deficient rat serum
T1 construct: assessed using vitamin D deficient rat serum; from tissue; host or cells: vitamin D deficient rat serum
T1 sequence (P04276 17-476): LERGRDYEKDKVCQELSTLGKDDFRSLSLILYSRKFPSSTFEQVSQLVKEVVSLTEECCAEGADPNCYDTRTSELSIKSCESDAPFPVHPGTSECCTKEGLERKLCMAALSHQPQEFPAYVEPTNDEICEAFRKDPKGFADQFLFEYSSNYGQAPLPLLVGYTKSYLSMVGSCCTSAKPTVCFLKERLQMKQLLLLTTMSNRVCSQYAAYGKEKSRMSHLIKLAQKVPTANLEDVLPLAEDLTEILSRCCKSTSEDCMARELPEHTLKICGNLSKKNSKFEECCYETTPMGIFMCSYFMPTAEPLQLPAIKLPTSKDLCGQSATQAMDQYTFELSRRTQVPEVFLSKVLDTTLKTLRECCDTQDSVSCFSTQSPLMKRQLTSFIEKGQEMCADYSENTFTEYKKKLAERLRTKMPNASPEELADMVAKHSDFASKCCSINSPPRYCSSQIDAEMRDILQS
Source text: In addition, the weak binding by the DBP was indicative of more rapid clearance, allowing for low toxicity.

[4] = system: human cancer cell lines BCA-1 or ZR-75-1 (breast) and COL-1 (colon); experiment: Antiproliferative activity in human cancer cell lines (thymidine incorporation); format: cell-based; settings: dose-response studies
Protocol: Dose-response studies are conducted with 1α,24(S)-(OH)2D2 in a battery of human cancer cell lines. These cell lines include, but are not limited to, the following: BCA-1 or ZR-75-1 (breast) and COL-1 (colon), as described by Shieh, H. L. et al. Chem. Biol. Interact., vol. 81, pp. 35-55 (1982). In this study, appropriate solvents are used as negative controls.

Hep 3B cells = experiment: Metabolism of 1α-OH-D2 in Hep 3B cells; format: in vitro ADME, human; settings: photodiode array spectrophotometry
Protocol: Substantially pure 1α-(OH)D2 was obtained from Bone Care International, Inc. of Madison, Wis. The 1α-(OH)D2 was cultured for 48 hours with cells derived from a human hepatoma, Hep 3B, in medium devoid of fetal calf serum using known methods in the art.
Lipid extracts of the combined medium and cells were generated by known methods in the art and were subjected to high pressure liquid chromatography (HPLC) on Zorbax-S1L developed with hexane/isopropano/methanol (91:7:2). The putative 1α,24(?)-(OH)2D2 metabolite eluted between the parent 1α-(OH)D2 and standard 1α,25-(OH)2D2 (also obtained from Bone Care International, Inc. of Madison, Wis.). (As used herein, the term “1α,24(?)-(OH)2D2” is meant to indicate that the epimeric form has not been identified.) The 1α,24(?)-(OH)2D2 was further purified by this HPLC system before the metabolite's identification was undertaken using mass spectrometry analysis.
Hep 3B cells were incubated with 1α-OH-D2, as described above, at final concentrations of 1, 10, or 100 nM (Experiment 1), and 1 or 10 μM (Experiment 2) and 1α,24(S)-(OH)2D2 was extracted and purified. The 1α,24(S)-(OH)2D2 and 1α,25-(OH)2D2 metabolites were quantitated by recovered radiolabel (Experiment 1) or by photodiode array spectrophotometry (Experiment 2).

Human keratinocytes = experiment: Epidermal cell differentiation and proliferation testing; format: cell-based; settings: 0.05 to 5 μg/ml, versus control cultures
Protocol: Human keratinocytes are cultured according to known modifications of the system originally described by Rheinwald and Green (Cell, vol.6, p.331 (1975)). The 1α,24(S)-dihydroxyvitamin D2, dissolved in ethanol, is added to cells to yield a variety of concentrations between 0.05 and 5 μg/ml with the ethanol concentration not to exceed 0.5% v/v. Control cultures are supplemented with ethanol at a final concentration of 0.5% v/v. Differentiation and proliferation of epidermal cells in culture is examined by:
1. quantitation of cornified envelopes;
2. quantitation of cell density of cells attached to disks;
3. monitoring transglutaminase activity; or
4. monitoring DNA synthesis by incorporation of ^3H-thymidine.

[5] = Prophylaxis of postmenopausal bone loss; format: in vivo, human; settings: at or above 1.0 μg/day, 24 to 36 months
Protocol: A clinical study is conducted with healthy postmenopausal women having ages between 55 and 60 years. The study involves up to 80 patients randomly divided into two treatment groups, and continues for 24 to 36 months. One treatment group receives a constant dosage of 1α,24(S)-dihydroxyvitamin D2 (u.i.d.; a dose level at or above 1.0 μg/day) and the other receives a matching placebo. The study is conducted as indicated in Example 2 above.

binding affinity for the vitamin D serum binding protein (in words) [3]: relatively poor binding affinity | binding affinity for the vitamin D serum binding protein (in words) ([3]; listed as 1α,24(S)-dihydroxyvitamin D2): more weakly than does 1,25-(OH)2D3 | binding of DBP relative to 25-OH-D3 ([3]; vitamin D deficient rat serum): at least 1000 times weaker | Rate of Production (Hep 3B cells; Experiment 2, substrate 1α-OH-D2 1 μM): 4.9 pmol per 10^6 cells/day | Rate of Production (Hep 3B cells; Experiment 2, substrate 1α-OH-D2 10 μM): 59 pmol per 10^6 cells/day
Compound: C=C1/C(=C\C=C2/CCC[C@]3(C)[C@@H]([C@H](C)/C=C/[C@@](C)(O)C(C)C)CC[C@@H]23)C[C@@H](O)C[C@@H]1O [1α,24(S)-(OH)2D2, 1α,24(S)-dihydroxyvitamin D2]
intestinal calcium absorption ([1]; double-isotope technique): significantly increases intestinal calcium absorption | incidence of hypercalcemia ([1]; twelve months): insignificant incidence of hypercalcemia | serum calcium levels ([1]; twelve months): normalized serum calcium levels | total body calcium and radial and spinal bone densities relative to baseline ([1]; twelve months): stable values for total body calcium, and stable radial and spinal bone densities | incidence of hypercalcemia or hypercalciuria [2]: insignificant incidence of hypercalcemia or hypercalciuria | total body calcium, radial and spinal bone densities relative to placebo [2]: significantly higher total body calcium, and radial and spinal bone densities | antiproliferative activity, inhibition of thymidine incorporation [4]: potent (and reversible) antiproliferative activity | DNA synthesis by incorporation of 3H-thymidine (Human keratinocytes): lower DNA synthesis | cell density of cells attached to disks (Human keratinocytes): fewer attached cells | cornified envelopes (Human keratinocytes): more cornified envelopes | transglutaminase activity (Human keratinocytes): higher transglutaminase activity | losses in total body calcium, radial or spinal bone densities relative to baseline [5]: reduced losses in total body calcium, radial or spinal bone densities | monitored safety parameters [5]: confirm the safety of long-term 1α,24(S)-dihydroxyvitamin D2 administration
